Legend:
[1] = molecular target: Glycogen synthase kinase-3 beta (Homo sapiens, UniProt P49841); assay: Selectivity interaction (Enzymatic assay) EUB0001199aCl GSK3B
[2] = molecular target: Tyrosine-protein kinase Fes/Fps (Homo sapiens) (UniProt P07332); assay: Selectivity interaction (KinomeScan (DiscoverX)) EUB0000666a FES; conditions: at 10 µM
[3] = molecular target: Dual specificity protein kinase CLK1 (Homo sapiens, UniProt P49759); conditions: at 10 µM
[4] = molecular target: Protein polybromo-1 (Homo sapiens) (UniProt Q86U86); assay: Selectivity interaction (Bromodomain panel (DSF asssay)) EUB0000270b PBRM1
Protein polybromo-1 (Homo sapiens), sequence (Q86U86 whole entry): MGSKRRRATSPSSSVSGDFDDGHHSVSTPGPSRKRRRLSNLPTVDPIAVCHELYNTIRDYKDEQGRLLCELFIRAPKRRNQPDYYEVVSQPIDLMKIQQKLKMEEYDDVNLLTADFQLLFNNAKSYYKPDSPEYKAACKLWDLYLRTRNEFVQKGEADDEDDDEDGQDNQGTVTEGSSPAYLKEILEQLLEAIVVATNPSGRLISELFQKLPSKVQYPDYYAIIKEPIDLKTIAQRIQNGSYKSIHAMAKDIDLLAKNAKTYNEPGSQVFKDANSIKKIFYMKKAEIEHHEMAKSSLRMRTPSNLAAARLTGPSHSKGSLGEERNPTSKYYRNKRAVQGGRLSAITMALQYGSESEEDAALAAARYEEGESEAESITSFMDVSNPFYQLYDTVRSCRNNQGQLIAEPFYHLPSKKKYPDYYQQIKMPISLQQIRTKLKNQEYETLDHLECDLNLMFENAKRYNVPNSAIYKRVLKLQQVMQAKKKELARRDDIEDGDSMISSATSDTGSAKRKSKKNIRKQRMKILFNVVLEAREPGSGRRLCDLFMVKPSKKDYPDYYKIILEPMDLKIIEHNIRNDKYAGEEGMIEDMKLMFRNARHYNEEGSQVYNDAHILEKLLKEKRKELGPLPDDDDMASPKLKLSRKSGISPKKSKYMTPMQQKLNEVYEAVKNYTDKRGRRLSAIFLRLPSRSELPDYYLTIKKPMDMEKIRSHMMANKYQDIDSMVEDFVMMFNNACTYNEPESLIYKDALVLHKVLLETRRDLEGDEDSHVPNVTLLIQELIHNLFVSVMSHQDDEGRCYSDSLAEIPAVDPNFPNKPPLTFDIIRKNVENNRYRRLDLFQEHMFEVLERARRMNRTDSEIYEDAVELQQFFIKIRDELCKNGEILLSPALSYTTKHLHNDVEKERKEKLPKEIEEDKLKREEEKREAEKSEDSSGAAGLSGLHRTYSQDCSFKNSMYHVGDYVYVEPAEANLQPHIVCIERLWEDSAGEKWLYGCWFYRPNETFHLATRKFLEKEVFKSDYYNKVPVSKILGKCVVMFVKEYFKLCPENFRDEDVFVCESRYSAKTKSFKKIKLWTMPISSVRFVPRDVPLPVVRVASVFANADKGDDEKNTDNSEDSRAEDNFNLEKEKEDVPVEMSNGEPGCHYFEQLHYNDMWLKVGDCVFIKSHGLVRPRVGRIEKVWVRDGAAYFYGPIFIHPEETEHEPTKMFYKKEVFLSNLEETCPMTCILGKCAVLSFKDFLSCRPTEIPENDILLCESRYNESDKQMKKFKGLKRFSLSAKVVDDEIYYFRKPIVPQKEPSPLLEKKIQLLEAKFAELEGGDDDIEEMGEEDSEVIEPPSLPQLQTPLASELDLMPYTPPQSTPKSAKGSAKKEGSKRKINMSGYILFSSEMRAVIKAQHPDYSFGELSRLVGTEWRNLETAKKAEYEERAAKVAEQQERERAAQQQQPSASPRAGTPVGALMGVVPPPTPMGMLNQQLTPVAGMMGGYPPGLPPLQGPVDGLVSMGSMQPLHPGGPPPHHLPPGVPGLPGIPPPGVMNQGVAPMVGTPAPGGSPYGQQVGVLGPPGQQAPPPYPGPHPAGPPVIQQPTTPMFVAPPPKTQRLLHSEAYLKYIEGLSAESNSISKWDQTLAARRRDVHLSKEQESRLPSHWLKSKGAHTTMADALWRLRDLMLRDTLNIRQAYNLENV

[5] = molecular target: T1, Serine/threonine-protein kinase TBK1 (Homo sapiens) (UniProt Q9UHD2); assay: Selectivity interaction (ActivX KiNativ screen (kinase selectivity in THP-1 cell lysates)) EUB0000639a TBK1; assay type: subcellular; conditions: lysate, at 0.2 µM
T1 sequence (whole entry): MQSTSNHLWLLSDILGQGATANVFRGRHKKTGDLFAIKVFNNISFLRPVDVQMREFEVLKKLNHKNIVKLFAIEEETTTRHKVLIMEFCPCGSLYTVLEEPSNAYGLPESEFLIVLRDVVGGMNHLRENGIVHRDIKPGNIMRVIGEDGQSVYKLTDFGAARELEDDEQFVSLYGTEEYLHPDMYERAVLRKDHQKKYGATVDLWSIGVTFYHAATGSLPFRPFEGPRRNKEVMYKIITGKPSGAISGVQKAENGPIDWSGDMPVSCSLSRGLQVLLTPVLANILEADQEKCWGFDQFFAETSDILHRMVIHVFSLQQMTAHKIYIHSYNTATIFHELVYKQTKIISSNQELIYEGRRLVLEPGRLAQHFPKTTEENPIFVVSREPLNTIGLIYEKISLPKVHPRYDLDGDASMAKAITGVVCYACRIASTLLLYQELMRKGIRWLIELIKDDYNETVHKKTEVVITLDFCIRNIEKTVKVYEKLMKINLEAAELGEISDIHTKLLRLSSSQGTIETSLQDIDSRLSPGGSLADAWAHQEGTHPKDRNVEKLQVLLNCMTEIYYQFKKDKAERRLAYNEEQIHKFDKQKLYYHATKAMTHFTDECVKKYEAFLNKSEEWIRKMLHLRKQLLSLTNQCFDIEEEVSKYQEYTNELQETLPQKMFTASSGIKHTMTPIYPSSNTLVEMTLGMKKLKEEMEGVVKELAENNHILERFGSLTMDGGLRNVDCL

[6] = molecular target: Serine/threonine-protein kinase 10 (Homo sapiens) (UniProt O94804); assay: Selectivity interaction (ActivX KiNativ screen (kinase selectivity in THP-1 cell lysates)) EUB0000639a STK10; assay type: subcellular; conditions: lysate, at 1 µM
Serine/threonine-protein kinase 10 (Homo sapiens), sequence (O94804 whole entry, looked up): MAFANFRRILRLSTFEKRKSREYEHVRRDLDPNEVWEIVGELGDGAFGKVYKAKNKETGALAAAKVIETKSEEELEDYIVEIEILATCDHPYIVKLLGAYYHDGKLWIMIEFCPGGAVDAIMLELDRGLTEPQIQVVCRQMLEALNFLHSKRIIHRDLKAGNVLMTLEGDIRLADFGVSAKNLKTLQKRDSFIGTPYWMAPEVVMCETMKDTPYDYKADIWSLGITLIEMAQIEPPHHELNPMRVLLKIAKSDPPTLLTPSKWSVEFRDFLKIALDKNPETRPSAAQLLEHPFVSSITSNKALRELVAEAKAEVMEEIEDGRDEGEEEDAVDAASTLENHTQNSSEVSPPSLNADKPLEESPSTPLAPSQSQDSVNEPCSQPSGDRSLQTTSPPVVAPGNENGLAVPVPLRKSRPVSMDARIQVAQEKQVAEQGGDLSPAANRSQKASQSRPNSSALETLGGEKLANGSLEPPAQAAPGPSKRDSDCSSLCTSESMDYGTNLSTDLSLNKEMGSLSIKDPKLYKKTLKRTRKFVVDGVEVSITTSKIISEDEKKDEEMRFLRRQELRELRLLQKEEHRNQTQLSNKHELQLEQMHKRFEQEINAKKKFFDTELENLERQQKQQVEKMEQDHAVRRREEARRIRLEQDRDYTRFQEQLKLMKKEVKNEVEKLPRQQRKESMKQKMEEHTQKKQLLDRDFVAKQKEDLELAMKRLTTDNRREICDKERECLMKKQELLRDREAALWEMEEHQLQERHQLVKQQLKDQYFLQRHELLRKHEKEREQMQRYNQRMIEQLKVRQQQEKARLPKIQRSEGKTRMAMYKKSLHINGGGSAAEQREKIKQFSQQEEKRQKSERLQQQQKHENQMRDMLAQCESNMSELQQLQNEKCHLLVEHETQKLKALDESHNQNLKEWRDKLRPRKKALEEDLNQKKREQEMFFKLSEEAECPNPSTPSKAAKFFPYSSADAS

[7] = molecular target: T2, Serine/threonine-protein kinase TAO3 (Homo sapiens) (UniProt Q9H2K8); assay: Selectivity interaction (KinomeScan (DiscoverX)) EUB0000045b TAOK3
T2 sequence (whole entry): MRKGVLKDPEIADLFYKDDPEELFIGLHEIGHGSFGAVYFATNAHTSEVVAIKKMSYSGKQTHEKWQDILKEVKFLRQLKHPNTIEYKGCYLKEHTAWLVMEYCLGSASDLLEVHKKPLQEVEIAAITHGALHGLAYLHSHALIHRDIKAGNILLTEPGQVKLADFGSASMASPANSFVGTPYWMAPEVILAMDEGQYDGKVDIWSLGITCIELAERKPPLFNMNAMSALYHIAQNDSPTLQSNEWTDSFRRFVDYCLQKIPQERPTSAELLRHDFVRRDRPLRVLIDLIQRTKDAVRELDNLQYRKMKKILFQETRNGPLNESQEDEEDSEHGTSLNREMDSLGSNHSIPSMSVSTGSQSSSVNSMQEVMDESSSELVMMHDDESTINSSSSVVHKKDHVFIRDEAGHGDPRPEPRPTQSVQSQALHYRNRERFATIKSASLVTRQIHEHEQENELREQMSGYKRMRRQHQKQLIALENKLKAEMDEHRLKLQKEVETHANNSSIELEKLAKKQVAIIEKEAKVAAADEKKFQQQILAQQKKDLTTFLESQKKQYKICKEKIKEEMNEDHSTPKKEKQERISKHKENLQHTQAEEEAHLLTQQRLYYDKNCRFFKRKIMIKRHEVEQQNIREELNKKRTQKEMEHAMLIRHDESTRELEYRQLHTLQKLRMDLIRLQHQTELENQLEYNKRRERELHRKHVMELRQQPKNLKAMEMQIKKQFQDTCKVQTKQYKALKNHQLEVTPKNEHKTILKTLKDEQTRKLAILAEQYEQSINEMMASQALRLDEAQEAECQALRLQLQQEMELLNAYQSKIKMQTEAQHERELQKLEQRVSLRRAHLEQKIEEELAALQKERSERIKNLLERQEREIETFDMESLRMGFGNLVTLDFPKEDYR

[8] = molecular target: Myosin-IIIa (Homo sapiens) (UniProt Q8NEV4); assay: Selectivity interaction (KinomeScan (DiscoverX)) EUB0000618a MYO3A; conditions: at 10 µM
[9] = molecular target: G protein-coupled receptor kinase 4 (Homo sapiens) (UniProt P32298); assay: Selectivity interaction (KinomeScan (DiscoverX)) EUB0000618a GRK4; conditions: at 10 µM
G protein-coupled receptor kinase 4 (Homo sapiens), sequence (P32298 whole entry, looked up): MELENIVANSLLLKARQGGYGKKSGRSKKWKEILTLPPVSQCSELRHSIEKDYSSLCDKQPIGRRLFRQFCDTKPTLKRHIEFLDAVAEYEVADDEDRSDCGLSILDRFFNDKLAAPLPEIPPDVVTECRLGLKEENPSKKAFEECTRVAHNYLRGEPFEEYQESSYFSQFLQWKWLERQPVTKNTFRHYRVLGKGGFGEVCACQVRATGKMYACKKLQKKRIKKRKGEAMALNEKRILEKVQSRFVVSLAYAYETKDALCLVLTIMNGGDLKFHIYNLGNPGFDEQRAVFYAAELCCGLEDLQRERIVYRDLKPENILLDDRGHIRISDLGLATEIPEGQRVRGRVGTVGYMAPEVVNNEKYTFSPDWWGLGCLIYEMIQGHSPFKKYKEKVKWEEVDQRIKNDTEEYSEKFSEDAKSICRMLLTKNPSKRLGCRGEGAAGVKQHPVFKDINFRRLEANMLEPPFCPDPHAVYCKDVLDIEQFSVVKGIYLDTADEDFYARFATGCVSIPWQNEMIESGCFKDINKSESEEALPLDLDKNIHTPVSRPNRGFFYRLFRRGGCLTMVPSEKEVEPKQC

[10] = molecular target: 5'-AMP-activated protein kinase catalytic subunit alpha-1 (Homo sapiens, UniProt Q13131); assay: Selectivity interaction (KinomeScan (DiscoverX)) EUB0000655a PRKAA1; conditions: at 10 µM
5'-AMP-activated protein kinase catalytic subunit alpha-1, sequence (Q13131 whole entry, looked up): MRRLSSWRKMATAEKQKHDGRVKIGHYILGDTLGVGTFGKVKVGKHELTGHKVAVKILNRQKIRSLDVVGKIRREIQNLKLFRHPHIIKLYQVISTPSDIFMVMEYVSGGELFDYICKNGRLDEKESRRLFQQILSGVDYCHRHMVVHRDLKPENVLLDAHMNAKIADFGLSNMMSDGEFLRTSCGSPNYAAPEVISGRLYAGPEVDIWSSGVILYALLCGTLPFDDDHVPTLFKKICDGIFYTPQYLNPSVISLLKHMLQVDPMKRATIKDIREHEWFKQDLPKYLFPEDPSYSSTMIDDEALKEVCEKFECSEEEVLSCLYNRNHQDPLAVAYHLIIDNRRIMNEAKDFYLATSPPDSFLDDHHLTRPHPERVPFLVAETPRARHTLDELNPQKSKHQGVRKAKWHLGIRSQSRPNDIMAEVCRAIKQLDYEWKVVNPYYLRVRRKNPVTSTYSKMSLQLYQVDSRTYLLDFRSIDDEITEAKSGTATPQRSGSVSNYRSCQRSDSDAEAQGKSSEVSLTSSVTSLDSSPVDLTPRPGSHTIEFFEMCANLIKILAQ

[11] = molecular target: cAMP-dependent protein kinase catalytic subunit beta (Homo sapiens) (UniProt P22694); assay: Selectivity interaction (KinomeScan (DiscoverX)) EUB0000607a PRKACB; conditions: at 10 µM
[12] = molecular target: T3, Protein kinase C iota type (Homo sapiens) (UniProt P41743); assay: Selectivity interaction (ProQinase) EUB0000171b PRKCI
T3 sequence (whole entry): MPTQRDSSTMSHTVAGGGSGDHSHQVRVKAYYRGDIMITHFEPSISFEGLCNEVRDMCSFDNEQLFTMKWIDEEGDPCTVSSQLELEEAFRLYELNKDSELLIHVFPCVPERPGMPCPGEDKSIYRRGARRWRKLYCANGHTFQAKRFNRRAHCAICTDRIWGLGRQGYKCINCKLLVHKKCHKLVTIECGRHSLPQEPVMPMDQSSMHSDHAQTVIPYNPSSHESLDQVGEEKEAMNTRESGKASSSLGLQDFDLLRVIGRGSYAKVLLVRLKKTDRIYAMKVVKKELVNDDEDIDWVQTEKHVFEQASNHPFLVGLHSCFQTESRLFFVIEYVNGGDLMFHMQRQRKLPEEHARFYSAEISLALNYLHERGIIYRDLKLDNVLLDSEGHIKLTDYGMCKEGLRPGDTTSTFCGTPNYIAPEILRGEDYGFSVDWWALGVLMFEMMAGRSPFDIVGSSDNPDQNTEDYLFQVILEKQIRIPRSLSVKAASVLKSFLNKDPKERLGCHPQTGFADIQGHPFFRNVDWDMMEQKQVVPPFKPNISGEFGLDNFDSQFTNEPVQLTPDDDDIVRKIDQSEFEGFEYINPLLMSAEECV

Tyrosine-protein kinase Fes/Fps (Homo sapiens), sequence (P07332 whole entry): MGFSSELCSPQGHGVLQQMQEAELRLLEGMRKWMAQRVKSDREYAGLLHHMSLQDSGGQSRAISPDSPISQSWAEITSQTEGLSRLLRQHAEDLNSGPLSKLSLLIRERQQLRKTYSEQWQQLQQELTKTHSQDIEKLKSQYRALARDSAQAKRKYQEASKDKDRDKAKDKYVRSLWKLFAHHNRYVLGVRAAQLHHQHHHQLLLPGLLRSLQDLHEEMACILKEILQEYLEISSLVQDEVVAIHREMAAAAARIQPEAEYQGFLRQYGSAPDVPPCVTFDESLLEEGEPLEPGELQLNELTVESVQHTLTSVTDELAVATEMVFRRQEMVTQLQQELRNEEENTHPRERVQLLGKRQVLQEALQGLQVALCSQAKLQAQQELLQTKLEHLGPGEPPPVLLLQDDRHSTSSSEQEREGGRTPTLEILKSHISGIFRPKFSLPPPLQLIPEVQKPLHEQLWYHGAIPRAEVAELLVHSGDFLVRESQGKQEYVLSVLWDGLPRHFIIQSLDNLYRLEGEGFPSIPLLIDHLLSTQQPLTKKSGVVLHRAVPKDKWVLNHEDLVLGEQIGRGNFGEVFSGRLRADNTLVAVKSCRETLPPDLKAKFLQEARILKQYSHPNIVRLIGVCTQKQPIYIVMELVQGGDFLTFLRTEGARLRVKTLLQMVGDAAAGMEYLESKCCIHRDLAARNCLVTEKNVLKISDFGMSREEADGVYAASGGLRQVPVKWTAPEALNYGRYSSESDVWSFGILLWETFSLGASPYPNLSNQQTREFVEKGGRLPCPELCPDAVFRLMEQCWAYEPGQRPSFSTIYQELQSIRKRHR
Glycogen synthase kinase-3 beta, sequence (P49841 whole entry): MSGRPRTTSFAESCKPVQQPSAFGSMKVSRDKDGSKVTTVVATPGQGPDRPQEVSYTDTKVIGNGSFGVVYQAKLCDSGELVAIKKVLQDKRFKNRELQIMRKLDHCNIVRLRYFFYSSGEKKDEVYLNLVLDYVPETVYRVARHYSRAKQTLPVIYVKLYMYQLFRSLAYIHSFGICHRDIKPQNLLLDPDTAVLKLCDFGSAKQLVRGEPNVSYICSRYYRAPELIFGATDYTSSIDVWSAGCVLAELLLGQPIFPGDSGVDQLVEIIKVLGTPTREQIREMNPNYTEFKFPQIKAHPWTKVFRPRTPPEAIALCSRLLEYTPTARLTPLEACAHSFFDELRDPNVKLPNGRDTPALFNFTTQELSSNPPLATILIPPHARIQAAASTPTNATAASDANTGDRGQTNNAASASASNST

## CN1Cc2nccc(-c3cn(C)nc3-c3ccc(F)cc3)c2C1=O
[1]
  IC50: 10 µM

## O=C(NOC[C@H](O)CO)c1ccc(F)c(F)c1Nc1ccc(I)cc1F
[2]
  % of control: 100%

## CCN(CC)CCCCNc1ncc2cc(-c3cc(OC)cc(OC)c3)c(NC(=O)NC(C)(C)C)nc2n1
[3]
  % of control: 100%

## Cc1cc(CN)cc(C)c1-c1ncn(C)c1-c1cncn1C
[4]
  dTM: -1.91 K

## CC[C@@H]1[C@H](F)C(=O)N[C@@H]1COc1nccc2cc(C(N)=O)c(OC)cc12 [ZIMLOVISERTIB]
[5]
  % of inhibition: -31.6%
[6]
  % of inhibition: -16.6%

## C=CC(=O)Nc1cc(-n2c(=O)ccc3cnc4ccc(-c5ccc(NS(C)(=O)=O)cc5)cc4c32)ccc1C
[7]; at 1 µM
  % of control: 100%
[7]; at 10 µM
  % of control: 100%

## O[C@H]1CC[C@H](Nc2ncc3nc(Nc4c(F)cc(F)cc4F)n([C@H]4CCOC4)c3n2)CC1
[8]
  % of control: 100%
[9]
  % of control: 98%

## CN(C)CCOc1ccc(-c2nc(-c3ccncc3)c(-c3ccc4c(c3)CC/C4=N\O)[nH]2)cc1
[10]
  % of control: 100%

## CNC(=O)Nc1ccc(-c2nc(N3CC4CCC(C3)O4)c3cnn(C4CCC5(CC4)OCCO5)c3n2)cc1
[11]
  % of control: 87%

## C=CC(=O)Nc1cccc(C(=O)Nc2ccc(Nc3cc(-c4[nH]c(SC)nc4C)ccn3)cc2)c1
[12]; at 1 µM
  % of control: 80%
[12]; at 5 µM
  % of control: 52%
